Source: ChEMBL document CHEMBL6083215, “Structure elucidation, absolute configuration, and biological evaluation of cyclic peroxides from the sponge Plakinastrella sp” (2024)

Columns and labels:
Assay type in all cases: functional
BT-549 = test: Growth inhibition of human BT-549 cells
Hs-578T = test: Growth inhibition of human HS 578T cells
LOX IMVI = test: Growth inhibition of human LOX IMVI cells
UO-31 = test: Growth inhibition of human UO-31 cells
HL-60(TB) = test: Growth inhibition of human HL-60(TB) cells
MCF7 = test: Growth inhibition of human MCF7 cells
MDA-MB-231 = test: Growth inhibition of human MDA-MB-231 cells
MDA-MB-468 = test: Growth inhibition of human MDA-MB-468 cells
T47D = test: Growth inhibition of human T47D cells
SF-268 = test: Growth inhibition of human SF-268 cells
SF-295 = test: Growth inhibition of human SF-295 cells
SF-539 = test: Growth inhibition of human SF-539 cells
SNB-19 = test: Growth inhibition of human SNB-19 cells
SNB-75 = test: Growth inhibition of human SNB-75 cells
U-251 = test: Growth inhibition of human U-251 cells
COLO 205 = test: Growth inhibition of human COLO 205 cells
HCC 2998 = test: Growth inhibition of human HCC 2998 cells
HCT-116 = test: Growth inhibition of human HCT-116 cells
HCT-15 = test: Growth inhibition of human HCT-15 cells
HT-29 = test: Growth inhibition of human HT-29 cells
KM12 = test: Growth inhibition of human KM12 cells
SW-620 = test: Growth inhibition of human SW620 cells
786-0 = test: Growth inhibition of human 786-0 cells
A498 = test: Growth inhibition of human A498 cells
ACHN = test: Growth inhibition of human ACHN cells
CAKI-1 = test: Growth inhibition of human CAKI-1 cells
RXF 393 = test: Growth inhibition of human RXF 393 cells
SN12C = test: Growth inhibition of human SN12C cells
TK-10 = test: Growth inhibition of human TK-10 cells
CCRF-CEM = test: Growth inhibition of human CCRF-CEM cells
K562 = test: Growth inhibition of human K562 cells
MOLT-4 = test: Growth inhibition of human MOLT-4 cells
RPMI-8226 = test: Growth inhibition of human RPMI-8226 cells
SR = test: Growth inhibition of human SR cells
A549 = test: Growth inhibition of human A549 cells
EKVX = test: Growth inhibition of human EKVX cells
HOP-62 = test: Growth inhibition of human HOP-62 cells
HOP-92 = test: Growth inhibition of human HOP-92 cells
NCI-H226 = test: Growth inhibition of human NCI-H226 cells
NCI-H23 = test: Growth inhibition of human NCI-H23 cells
NCI-H322M = test: Growth inhibition of human NCI-H322M cells
NCI-H460 = test: Growth inhibition of human NCI-H460 cells
NCI-H522 = test: Growth inhibition of human NCI-H522 cells
M14 = test: Growth inhibition of human M14 cells
Malme-3M = test: Growth inhibition of human Malme-3M cells
MDA-MB-435 = test: Growth inhibition of human MDA-MB-435 cells
SK-MEL-2 = test: Growth inhibition of human SK-MEL-2 cells
SK-MEL-28 = test: Growth inhibition of human SK-MEL-28 cells
SK-MEL-5 = test: Growth inhibition of human SK-MEL-5 cells
UACC-257 = test: Growth inhibition of human UACC-257 cells
UACC-62 = test: Growth inhibition of human UACC-62 cells
IGROV-1 = test: Growth inhibition of human IGROV-1 cells
OVCAR-3 = test: Growth inhibition of human OVCAR-3 cells
OVCAR-4 = test: Growth inhibition of human OVCAR-4 cells
OVCAR-5 = test: Growth inhibition of human OVCAR-5 cells
OVCAR-8 = test: Growth inhibition of human OVCAR-8 cells
SK-OV-3 = test: Growth inhibition of human SK-OV-3 cells
NCI/ADR-RES = test: Growth inhibition of human NCI-ADR-RES cells
DU-145 = test: Growth inhibition of human DU-145 cells
PC-3 = test: Growth inhibition of human PC-3 cells

Measured: GI50

CCCCCCCCC/C=C(/C)C[C@]1(C)C[C@H](C)[C@@H](CC(=O)O)OO1
980 nM: BT-549 | Hs-578T | MCF7 | MDA-MB-231 | MDA-MB-468 | T47D | SF-268 | SF-295 | SF-539 | SNB-19 | SNB-75 | U-251 | COLO 205 | HCC 2998 | HCT-116 | HCT-15 | HT-29 | KM12 | SW-620 | 786-0 | A498 | ACHN | CAKI-1 | RXF 393 | SN12C | TK-10 | CCRF-CEM | K562 | MOLT-4 | RPMI-8226 | SR | A549 | EKVX | HOP-62 | HOP-92 | NCI-H226 | NCI-H23 | NCI-H322M | NCI-H460 | NCI-H522 | M14 | Malme-3M | MDA-MB-435 | SK-MEL-2 | SK-MEL-28 | SK-MEL-5 | UACC-257 | UACC-62 | IGROV-1 | OVCAR-3 | OVCAR-4 | OVCAR-5 | OVCAR-8 | SK-OV-3 | NCI/ADR-RES | DU-145 | PC-3
110 nM: LOX IMVI
190 nM: UO-31
220 nM: HL-60(TB)

COc1cccc2c1C(=O)c1c(O)c3c(c(O)c1C2=O)C[C@@](O)(C(=O)CO)C[C@@H]3O[C@H]1C[C@H](N)[C@H](O)[C@H](C)O1 [DOXORUBICIN]
120 nM: BT-549 | Hs-578T | MCF7 | MDA-MB-231 | MDA-MB-468 | T47D | SF-268 | SF-295 | SF-539 | SNB-19 | SNB-75 | U-251 | COLO 205 | HCC 2998 | HCT-116 | HCT-15 | HT-29 | KM12 | SW-620 | 786-0 | A498 | ACHN | CAKI-1 | RXF 393 | SN12C | TK-10 | CCRF-CEM | K562 | MOLT-4 | RPMI-8226 | SR | A549 | EKVX | HOP-62 | HOP-92 | NCI-H226 | NCI-H23 | NCI-H322M | NCI-H460 | NCI-H522 | M14 | Malme-3M | MDA-MB-435 | SK-MEL-2 | SK-MEL-28 | SK-MEL-5 | UACC-257 | UACC-62 | IGROV-1 | OVCAR-3 | OVCAR-4 | OVCAR-5 | OVCAR-8 | SK-OV-3 | NCI/ADR-RES | DU-145 | PC-3

CCCCCCCC/C=C(/C)C[C@]1(C)C[C@H](C)[C@@H](CC(=O)O)OO1
90 nM: HL-60(TB)
10 nM: LOX IMVI
60 nM: UO-31
600 nM: BT-549 | Hs-578T | MCF7 | MDA-MB-231 | MDA-MB-468 | T47D | SF-268 | SF-295 | SF-539 | SNB-19 | SNB-75 | U-251 | COLO 205 | HCC 2998 | HCT-116 | HCT-15 | HT-29 | KM12 | SW-620 | 786-0 | A498 | ACHN | CAKI-1 | RXF 393 | SN12C | TK-10 | CCRF-CEM | K562 | MOLT-4 | RPMI-8226 | SR | A549 | EKVX | HOP-62 | HOP-92 | NCI-H226 | NCI-H23 | NCI-H322M | NCI-H460 | NCI-H522 | M14 | Malme-3M | MDA-MB-435 | SK-MEL-2 | SK-MEL-28 | SK-MEL-5 | UACC-257 | UACC-62 | IGROV-1 | OVCAR-3 | OVCAR-4 | OVCAR-5 | OVCAR-8 | SK-OV-3 | NCI/ADR-RES | DU-145 | PC-3

CCCCCCCCC/C=C(/C)CC(C)(O)CC(C)C(O)CC(=O)OC (configuration not stated)
> 100000 nM: BT-549 | Hs-578T | LOX IMVI | UO-31 | HL-60(TB) | MCF7 | MDA-MB-231 | MDA-MB-468 | T47D | SF-268 | SF-295 | SF-539 | SNB-19 | SNB-75 | U-251 | COLO 205 | HCC 2998 | HCT-116 | HCT-15 | HT-29 | KM12 | SW-620 | 786-0 | A498 | ACHN | CAKI-1 | RXF 393 | SN12C | TK-10 | CCRF-CEM | K562 | MOLT-4 | RPMI-8226 | SR | A549 | EKVX | HOP-62 | HOP-92 | NCI-H226 | NCI-H23 | NCI-H322M | NCI-H460 | NCI-H522 | M14 | Malme-3M | MDA-MB-435 | SK-MEL-2 | SK-MEL-28 | SK-MEL-5 | UACC-257 | UACC-62 | IGROV-1 | OVCAR-3 | OVCAR-4 | OVCAR-5 | OVCAR-8 | SK-OV-3 | NCI/ADR-RES | DU-145 | PC-3
